Experimental data: patent US10913727B2, “Modulators of the integrated stress pathway” (Calico Life Sciences LLC, priority 2016, dated 2021)

System: HEK293T cells carrying the ATF4 luciferase reporter
Assay: ATF4-Luc assay, in vitro model of Vanishing Cell White Matter Disease (VWMD)
Type: cell-based
Conditions: Homo sapiens, HEK-293T, 1 μg/mL tunicamycin, 7 hours, One Glo luminescence
Outline: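 Compound at 200 nM and tunicamycin at 1 μg/mL were given together for 7 h to HEK293T cells stably transduced with an ATF4 5′-UTR-driven firefly luciferase reporter. Read-out by luminescence, reported as EC50.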

| SMILES | EC50 [µM] |
| --- | --- |
| CCNC(=O)c1ccc(C(=O)NC23CC(NC(=O)COc4ccc(Cl)c(F)c4)(C2)C3)nc1 [Compound 270, N^2-{3-[2-(4-chloro-3-fluorophenoxy)acetamido]bicyclo[1.1.1]pentan-1-yl}-N^5-ethylpyridine-2,5-dicarboxamide] | > 2 |
| O=C(COc1ccc(Cl)cc1)NC12CC(Nc3nnc(-c4ccc(Cl)cc4)s3)(C1)C2 [Compound 271, 2-(4-chlorophenoxy)-N-(3-{[5-(4-chlorophenyl)-1,3,4-thiadiazol-2-yl]amino}bicyclo[1.1.1]pentan-1-yl)acetamide] | 0.25 to 1 |
| Cc1cc(C(=O)NC23CCC(NC(=O)COc4ccc(Cl)c(F)c4)(CC2)C(O)C3)no1 (stereo not shown) [Compound 272, N-{4-[2-(4-chloro-3-fluorophenoxy)acetamido]-3-hydroxybicyclo[2.2.2]octan-1-yl}-5-methyl-1,2-oxazole-3-carboxamide] | 0.05 to 0.25 |
| Cc1cc(C(=O)NC23CC(NC(=O)COc4ccc(Cl)c(F)c4)(C2)C3)no1 [Compound 273, N-{3-[2-(4-chloro-3-fluorophenoxy)acetamido]bicyclo[1.1.1]pentan-1-yl}-5-methyl-1,2-oxazole-3-carboxamide] | 0.25 to 1 |
| COc1nccnc1C(=O)NC12CCC(NC(=O)COc3ccc(Cl)c(F)c3)(CC1)C(O)C2 (stereo not shown) [Compound 274, N-{4-[2-(4-chloro-3-fluorophenoxy)acetamido]-3-hydroxybicyclo[2.2.2]octan-1-yl}-3-methoxypyrazine-2-carboxamide] | 0.25 to 1 |
| CCc1cc(C(=O)NC23CC(NC(=O)COc4ccc(Cl)c(F)c4)(C2)C3)[nH]n1 [Compound 275, N-{3-[2-(4-chloro-3-fluorophenoxy)acetamido]bicyclo[1.1.1]pentan-1-yl}-3-ethyl-1H-pyrazole-5-carboxamide] | 0.05 to 0.25 |
| O=C(COc1ccc(F)c(F)c1)NC12CC(NC(=O)c3ccc(OC(F)(F)F)nc3)(C1)C2 [Compound 277, N-{3-[2-(3,4-difluorophenoxy)acetamido]bicyclo[1.1.1]pentan-1-yl}-6-(trifluoromethoxy)pyridine-3-carboxamide] | 1 to 2 |
| O=C(COc1ccc(F)c(F)c1)NC12CC(NC(=O)c3cnc(C(F)F)cn3)(C1)C2 [Compound 278, 5-(difluoromethyl)-N-{3-[2-(3,4-difluorophenoxy)acetamido]bicyclo[1.1.1]pentan-1-yl}pyrazine-2-carboxamide] | 0.25 to 1 |
| CCOC(=O)c1cc(C(=O)NC23CC(NC(=O)COc4ccc(Cl)c(F)c4)(C2)C3)ccn1 [Compound 279, ethyl 4-({3-[2-(4-chloro-3-fluorophenoxy)acetamido]bicyclo[1.1.1]pentan-1-yl}carbamoyl)pyridine-2-carboxylate] | 0.25 to 1 |
| O=C(COc1ccc(Cl)c(F)c1)NC12CC(NC(=O)c3ccnc(C(=O)O)c3)(C1)C2 [Compound 280, 4-({3-[2-(4-chloro-3-fluorophenoxy)acetamido]bicyclo[1.1.1]pentan-1-yl}carbamoyl)pyridine-2-carboxylic acid] | > 2 |
| O=C(COc1ccc(Cl)c(Cl)c1)NC12CC(NC(=O)c3cc(CCO)ccn3)(C1)C2 [Compound 281, N-{3-[2-(3,4-dichlorophenoxy)acetamido]bicyclo[1.1.1]pentan-1-yl}-4-(2-hydroxyethyl)pyridine-2-carboxamide] | 0.05 to 0.25 |
| O=C(COc1ccc(Cl)c(F)c1)NC12CC(NC(=O)c3cc(CCO)ccn3)(C1)C2 [Compound 282, N-{3-[2-(4-chloro-3-fluorophenoxy)acetamido]bicyclo[1.1.1]pentan-1-yl}-4-(2-hydroxyethyl)pyridine-2-carboxamide] | 0.25 to 1 |
| O=C(COc1ccc(Cl)c(F)c1)NC12CC(NC(=O)c3ccc(/C=C/C4CC4)cn3)(C1)C2 [Compound 283, N-{3-[2-(4-chloro-3-fluorophenoxy)acetamido]bicyclo[1.1.1]pentan-1-yl}-5-[(E)-2-cyclopropylethenyl]pyridine-2-carboxamide] | < 0.05 |
| O=C(COc1ccc(Cl)cc1)NC12CC(Nc3nc(-c4ccc(Cl)cc4)no3)(C1)C2 [Compound 284, 2-(4-chlorophenoxy)-N-(3-{[3-(4-chlorophenyl)-1,2,4-oxadiazol-5-yl]amino}bicyclo[1.1.1]pentan-1-yl)acetamide] | 0.05 to 0.25 |
| Cc1ncc(C(=O)NC23CC(NC(=O)COc4ccc(Cl)c(F)c4)(C2)C3)s1 [Compound 285, N-{3-[2-(4-chloro-3-fluorophenoxy)acetamido]bicyclo[1.1.1]pentan-1-yl}-2-methyl-1,3-thiazole-5-carboxamide] | 0.05 to 0.25 |
| Cc1cnc(C(=O)NC23CCC(NC(=O)COc4ccc(Cl)c(F)c4)(CC2)C(O)C3)c(C)n1 (stereo not shown) [Compound 286, N-{4-[2-(4-chloro-3-fluorophenoxy)acetamido]-3-hydroxybicyclo[2.2.2]octan-1-yl}-3,5-dimethylpyrazine-2-carboxamide] | 0.25 to 1 |
| O=C(COc1ccc(Cl)cc1)NC12CC(Nc3noc(-c4ccc(Cl)cc4)n3)(C1)C2 [Compound 287, 2-(4-chlorophenoxy)-N-(3-{[5-(4-chlorophenyl)-1,2,4-oxadiazol-3-yl]amino}bicyclo[1.1.1]pentan-1-yl)acetamide] | 0.05 to 0.25 |

| SMILES | EC50 [µM] |
| --- | --- |
| O=C(COc1ccc(Cl)c(F)c1)NC12CC(NC(=O)c3ccnc(C(=O)NCCO)c3)(C1)C2 [Compound 288, N^4-{3-[2-(4-chloro-3-fluorophenoxy)acetamido]bicyclo[1.1.1]pentan-1-yl}-N^2-(2-hydroxyethyl)pyridine-2,4-dicarboxamide] | > 2 |
| O=C(COc1ccc(Cl)c(F)c1)NC12CC(NC(=O)c3ccc(CCC4CC4)cn3)(C1)C2 [Compound 289, N-{3-[2-(4-chloro-3-fluorophenoxy)acetamido]bicyclo[1.1.1]pentan-1-yl}-5-(2-cyclopropylethyl)pyridine-2-carboxamide] | < 0.05 |
| CCc1ncc(C(=O)NC23CC(NC(=O)COc4ccc(Cl)c(F)c4)(C2)C3)o1 [Compound 290, N-{3-[2-(4-chloro-3-fluorophenoxy)acetamido]bicyclo[1.1.1]pentan-1-yl}-2-ethyl-1,3-oxazole-5-carboxamide] | 0.05 to 0.25 |
| O=C(COc1ccc(F)c(F)c1)NC12CC(NC(=O)c3ccc(CCC4CC4)cn3)(C1)C2 [Compound 291, 5-(2-cyclopropylethyl)-N-{3-[2-(3,4-difluorophenoxy)acetamido]bicyclo[1.1.1]pentan-1-yl}pyridine-2-carboxamide] | 0.05 to 0.25 |
| CCc1ncc(C(=O)NC23CC(NC(=O)COc4ccc(Cl)c(F)c4)(C2)C3)s1 [Compound 292, N-{3-[2-(4-chloro-3-fluorophenoxy)acetamido]bicyclo[1.1.1]pentan-1-yl}-2-ethyl-1,3-thiazole-5-carboxamide] | 0.05 to 0.25 |
| CCCc1ncc(C(=O)NC23CC(NC(=O)COc4ccc(Cl)c(F)c4)(C2)C3)s1 [Compound 293, N-{3-[2-(4-chloro-3-fluorophenoxy)acetamido]bicyclo[1.1.1]pentan-1-yl}-2-propyl-1,3-thiazole-5-carboxamide] | < 0.05 |
| CCc1nc(C)c(C(=O)NC23CC(NC(=O)COc4ccc(Cl)c(F)c4)(C2)C3)s1 [Compound 294, N-{3-[2-(4-chloro-3-fluorophenoxy)acetamido]bicyclo[1.1.1]pentan-1-yl}-2-ethyl-4-methyl-1,3-thiazole-5-carboxamide] | 0.05 to 0.25 |
| Cc1cc(C(=O)NC23CC(NC(=O)COc4ccc(Cl)c(F)c4)(C2)C3)on1 [Compound 295, N-{3-[2-(4-chloro-3-fluorophenoxy)acetamido]bicyclo[1.1.1]pentan-1-yl}-3-methyl-1,2-oxazole-5-carboxamide] | 0.25 to 1 |
| O=C(COc1ccc(Cl)c(F)c1)NC12CCC(NC(=O)c3cnc(C(F)F)cn3)(C1)C2 [Compound 296, N-{4-[2-(4-chloro-3-fluorophenoxy)acetamido]bicyclo[2.1.1]hexan-1-yl}-5-(difluoromethyl)pyrazine-2-carboxamide] | 0.05 to 0.25 |
| O=C(COc1ccc(Cl)c(F)c1)NC12CCC(NC(=O)c3ccc(OC(F)(F)F)nc3)(C1)C2 [Compound 298, N-{4-[2-(4-chloro-3-fluorophenoxy)acetamido]bicyclo[2.1.1]hexan-1-yl}-6-(trifluoromethoxy)pyridine-3-carboxamide] | 0.05 to 0.25 |
| COCCOc1ccc(C(=O)NC23CC(NC(=O)COc4ccc(Cl)c(F)c4)(C2)C3)nc1 [Compound 299, N-{3-[2-(4-chloro-3-fluorophenoxy)acetamido]bicyclo[1.1.1]pentan-1-yl}-5-(2-methoxyethoxy)pyridine-2-carboxamide] | 0.25 to 1 |
| O=C(COc1ccc(Cl)c(F)c1)NC12CC(NC(=O)c3cc(OC(F)F)ccn3)(C1)C2 [Compound 300, N-{3-[2-(4-chloro-3-fluorophenoxy)acetamido]bicyclo[1.1.1]pentan-1-yl}-4-(difluoromethoxy)pyridine-2-carboxamide] | 0.25 to 1 |
| COc1cccc(C(=O)NC23CC(NC(=O)COc4ccc(Cl)c(F)c4)(C2)C3)c1 [Compound 301, N-{3-[2-(4-chloro-3-fluorophenoxy)acetamido]bicyclo[1.1.1]pentan-1-yl}-3-methoxybenzamide] | 0.25 to 1 |
| COc1ccc(C(=O)NC23CC(NC(=O)COc4ccc(Cl)c(F)c4)(C2)C3)cc1OC [Compound 302, N-{3-[2-(4-chloro-3-fluorophenoxy)acetamido]bicyclo[1.1.1]pentan-1-yl}-3,4-dimethoxybenzamide] | > 2 |
| COc1cc(OC)cc(C(=O)NC23CC(NC(=O)COc4ccc(Cl)c(F)c4)(C2)C3)c1 [Compound 303, N-{3-[2-(4-chloro-3-fluorophenoxy)acetamido]bicyclo[1.1.1]pentan-1-yl}-3,5-dimethoxybenzamide] | 1 to 2 |
| O=C(COc1ccc(Cl)c(F)c1)NC12CC(NC(=O)c3ccco3)(C1)C2 [Compound 304, N-{3-[2-(4-chloro-3-fluorophenoxy)acetamido]bicyclo[1.1.1]pentan-1-yl}furan-2-carboxamide] | 0.25 to 1 |
| O=C(COc1ccc(Cl)c(F)c1)NC12CC(NC(=O)c3ccoc3)(C1)C2 [Compound 305, N-{3-[2-(4-chloro-3-fluorophenoxy)acetamido]bicyclo[1.1.1]pentan-1-yl}furan-3-carboxamide] | 0.25 to 1 |
